Reference: patent US7015228B2, “4-amino-2-(2-pyridyl)pyrimidines as microbicidal active substances” (Ciba Specialty Chemicals Corporation, priority 2001, dated 2006)

How the values were obtained:
Assay in all cases: Determination of the bactericidal activity (logarithmic reduction in organism count)
Conditions in all cases: contact for 30 minutes at a substance concentration of 120 μg/mL
[1] = system: S. choleraesuis ATCC 10708; assay type: cell-based, Salmonella choleraesuis
Procedure: (§1) Determination of the Bactericidal Activity of Selected Compounds
(§2) Casein-soybean flour-peptone broth for preparation of pre-cultures of test bacteria
(§3) Examples of Test Organisms:
(§4) • Staphylococcus aureus ATCC 6538 • Escherichia coli ATCC 10536 • Salmonella choleraesuis ATCC 10708 Procedure:
(§5) The test substances are dissolved in dimethyl sulfoxide (DMSO) and tested in a concentration of 120 μg/ml.
(§6) Bacteria are incubated overnight in CASO broth and adjusted to an organism count of 1–5×10^5 CFU/ml using 0.85% sodium chloride solution.
(§7) The test substances are pre-pipetted into microtitre plates in amounts of 8 μl per well.
(§8) The adjusted test organism suspensions are added in amounts of 192 μl per well to the test substances and mixed. After defined contact times, the test batches are mixed, an aliquot is withdrawn and diluted in several steps in a dilution series of 1:10 in a suitable inactivation medium.
The test plates are incubated for 24 hours at 37° C. […]
(§9) One microtitre plate is used for each test organism.
(§10) All the substances are tested in duplicate.

E. coli NCTC 8196 = assay type: cell-based, Escherichia coli
S. aureus ATCC 6538 = assay type: cell-based, Staphylococcus aureus
Procedure: as §1, §2, §3, §4, §5, §6, §7, §8
The test plates are incubated for 24 hours at 37° C.
After incubation, the growth is determined on the basis of the turbidity of the test batches (optical density) at 620 nm in a microplate reader.
as §9, §10

SMILES | Logarithmic reduction in organism count, S. choleraesuis ATCC 10708 [1] | Logarithmic reduction in organism count, E. coli NCTC 8196 (E. coli NCTC 8196) | Logarithmic reduction in organism count, S. aureus ATCC 6538 (S. aureus ATCC 6538)
CC(C)c1cc(NCCCCCCCCCCCCN)nc(-c2ccccn2)n1 [Compound of formula 43] | <1 log | <1 log | 3 log
CCCCCCCNc1cc(C(C)C)nc(-c2ccccn2)n1 [Compound of formula 44] | <1 log | <1 log | 1–2 log
CCCCCCCCNc1cc(C(C)C)nc(-c2ccccn2)n1 [Compound of formula 45] | <1 log | <1 log | 1–2 log
CCCCCCCCCNc1cc(C(C)C)nc(-c2ccccn2)n1 [Compound of formula 46] | <1 log | <1 log | ≦1 log
CCCCCCCCCCNc1cc(C(C)C)nc(-c2ccccn2)n1 [Compound of formula 47] | <1 log | <1 log | 1 log
CCCCCCCCCCCCNc1cc(C(C)C)nc(-c2ccccn2)n1 [Compound of formula 48] | <1 log | <1 log | 1 log
CC(C)(C)c1cc(NCCCCCCCCCN)nc(-c2ccccn2)n1 [Compound of formula 54] | ≦1 log | ≦1 log | 2–3 log
CCCCCCCCCNc1cc(C(C)(C)C)nc(-c2ccccn2)n1 [Compound of formula 58] | ≦1 log | ≦1 log | 1 log
CCCCCCCCCCCCNc1cc(C(C)(C)C)nc(-c2ccccn2)n1 [Compound of formula 60] | <1 log | <1 log | <1 log
CC(C)(C)c1cc(NCCc2ccccc2)nc(-c2ccccn2)n1 [Compound of formula 63] | <1 log | ≦1 log | <1 log
Cc1nc(-c2ccccn2)nc(NCCCCCCCCN)c1C(C)C [Compound of formula 65] | <1 log | <1 log | 3 log
CCCCCCCNc1nc(-c2ccccn2)nc(C)c1C(C)C [Compound of formula 68] | <1 log | <1 log | ≦1 log
CCCCCCCCNc1nc(-c2ccccn2)nc(C)c1C(C)C [Compound of formula 69] | ≦1 log | <1 log | 1–2 log
CCCCCCCCCNc1nc(-c2ccccn2)nc(C)c1C(C)C [Compound of formula 70] | <1 log | ≦1 log | ≦1 log
CCCCCCCCCCNc1nc(-c2ccccn2)nc(C)c1C(C)C [Compound of formula 71] | <1 log | <1 log | 2 log
COCCc1cc(NCCCCCCCCN)nc(-c2ccccn2)n1 [Compound of formula 77] | <1 log | <1 log | >3 log
COCCc1cc(NCCCCCCCCCN)nc(-c2ccccn2)n1 [Compound of formula 78] | <1 log | ≦1 log | >3 log
CCCCCCCCCCNc1cc(CCOC)nc(-c2ccccn2)n1 [Compound of formula 83] | <1 log | ≦1 log | 2 log
CCCCCCCCCCCNc1nc(-c2ccccn2)nc(C)c1CC [Compound of formula 89] | ≦1 log | ≦1 log | 2 log
CCCCCCCCCCCCCCCNc1nc(-c2ccccn2)nc(C)c1CC [Compound of formula 90] | <1 log | <1 log | 2 log
CCCCCCCCCCCNc1cc(C)nc(-c2ccccn2)n1 [Compound of formula 92] | ≦1 log | <1 log | >3 log
CCCCCCCCCCCCCCCNc1cc(C)nc(-c2ccccn2)n1 [Compound of formula 93] | <1 log | ≦1 log | 2 log
CCCCCCCCCCCNc1cc(C(C)C)nc(-c2ccccn2)n1 [Compound of formula 98] | 2–3 log | 1–2 log | 1 log
CCCCCCCCCCCCCCCNc1cc(C(C)C)nc(-c2ccccn2)n1 [Compound of formula 99] | <1 log | ≦1 log | 2 log
